Where a name gives a salt, the structure may show the parent alone.
Molecular target: T1, RIPK2 (Homo sapiens, UniProt O43353)
T1 construct: Full length FLAG His tagged RIPK2 was purified from a Baculovirus expression system; FLAG (N); 6His (N); made in house; host or cells: Spodoptera frugiperda (Sf9) insect cells, baculovirus
Assay: Fluorescent polarization based binding assay at the ATP binding pocket of RIPK2
Conditions: full length FLAG His tagged RIPK2; competition with fluorescently labeled ATP competitive ligand (5 nM); mean of a minimum of 2 experiments; read-out: mean pIC50 (RIP2 kinase, fluorescent polarization binding assay) (converted)
Description: A fluorescent polarization based binding assay was developed to quantitate interaction of novel test compounds at the ATP binding pocket of RIPK2, by competition with a fluorescently labeled ATP competitive ligand. Full length FLAG His tagged RIPK2 was purified from a Baculovirus expression system and was used at a final assay concentration of twice the KDapparent. A fluorescent labeled ligand (5-({[2-({[3-({4-[(5-hydroxy-2-methylphenyl)amino]-2-pyrimidinyl}amino)phenyl]carbonyl}amino)ethyl]amino}carbonyl)-2-(6-hydroxy-3-oxo-3H-xanthen-9-yl)benzoic acid, prepared as described below) was used at a final assay concentration of 5 nM. Both the enzyme and ligand were prepared in solutions in 50 mM HEPES pH7.5, 150 mM NaCl, 10 mM MgCl2, 1 mM DTT, and 1 mM CHAPS. Test compounds were prepared in 100% DMSO and 100 nL was dispensed to individual wells of a multiwell plate. Next, 5 ul RIPK2 was added to the test compounds at twice the final assay concentration, and incubated at room temperature for 10 minutes. Following the incubation, 5 ul of the fluorescent labeled ligand solution, was added to each reaction, at twice the final assay concentration, and incubated at room temperature for at least 10 minutes. Finally, samples were read on an instrument capable of measuring fluorescent polarization. Test compound inhibition was expressed as percent (%) inhibition of internal assay controls.
For concentration response experiments, normalized data were fit and pIC50s determined using conventional techniques. For example, the following four parameter logistic equation may be used: y=A+(([…]))/(1+(10^x)/(10^C)^D), where: y is the % activity (% inhibition) at a specified compound concentration; A is the minimum % activity; B is the maximum % activity; C=log10(IC50); D=Hill slope; x=log10 (compound concentration [M]); and pIC50=(−C).
The pIC50s are averaged to determine a mean value, for a minimum of 2 experiments.
Full-length human RIPK2 (receptor-interacting serine-threonine kinase 2) cDNA was purchased from Invitrogen (Carlsbad, Calif., USA, Clone ID:10H6368, RIPK2-pENTR 221). […]

T1 sequence (O43353 whole entry): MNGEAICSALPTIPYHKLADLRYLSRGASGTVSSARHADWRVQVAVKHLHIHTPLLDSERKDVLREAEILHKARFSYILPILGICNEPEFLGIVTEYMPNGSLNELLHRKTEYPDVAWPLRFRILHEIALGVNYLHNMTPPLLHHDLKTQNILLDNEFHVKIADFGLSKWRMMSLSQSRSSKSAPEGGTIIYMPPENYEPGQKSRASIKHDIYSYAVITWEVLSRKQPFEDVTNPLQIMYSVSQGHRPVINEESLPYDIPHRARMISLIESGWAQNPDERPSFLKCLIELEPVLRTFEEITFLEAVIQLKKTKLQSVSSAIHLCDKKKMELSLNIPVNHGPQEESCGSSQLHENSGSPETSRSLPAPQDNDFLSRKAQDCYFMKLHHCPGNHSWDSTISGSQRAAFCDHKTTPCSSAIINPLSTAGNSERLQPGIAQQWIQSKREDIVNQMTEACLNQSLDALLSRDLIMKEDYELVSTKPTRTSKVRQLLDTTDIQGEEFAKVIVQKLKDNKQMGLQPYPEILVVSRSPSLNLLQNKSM

Row | SMILES | IC50 [nM]
1 | CS(=O)(=O)c1ccc2nccc(Nc3ccc(O)c(F)c3)c2c1 [Example 12, 2-fluoro-4-{[6-(methylsulfonyl)-4-quinolinyl]amino}phenol] | 398
2 | CS(=O)(=O)c1ccc2nccc(Nc3n[nH]c4cc(Cl)ccc34)c2c1 [Example 75, N-(6-chloro-1H-indazol-3-yl)-6-(methylsulfonyl)-4-quinolinamine] | 126
3 | Nc1ccc(S(=O)(=O)c2ccc3nccc(Nc4ccc5scnc5c4)c3c2)cc1 [Example 106, 6-[(4-aminophenyl)sulfonyl]-N-1,3-benzothiazol-5-yl-4-quinolinamine tetrahydrochloride] | 126

Reference: patent US20160060222A1, “AMINO-QUINOLINES AS KINASE INHIBITORS” (GlaxoSmithKline Intellectual Property Development Limited, priority 2011, published 2016)
